Laboratory results reported in PubChem BioAssay AID292 (DTP/NCI, 2004).
“And” between values parts separate entries of the source, which are not always exact repeats. Identical values can stand only once. Toxic doses and inconclusive results are not listed. How the source made its calls: active means survival T/C of 150% or more; inactive means T/C below 125% in these data.

Test system: B6C3F1 mice, ip Sarcoma M5076, median survival T/C
Assay: NCI In Vivo Anticancer Drug Screen. Data for tumor model Sarcoma M5076 (intraperitoneal) in B6C3F1 mice
Conditions: endpoint: median survival time, higher = longer survival
How it was run: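 Survival measured in treated (T) and vehicle control (C) mice with transplantable tumour; result given as T divided by C.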

[1] = dose: 50.0 mg/kg/injection, schedule: Q04DX004 (ip), vehicle: Klucel (hydroxypropylcellulose) (HPC)
[2] = dose: 100.0 mg/kg/injection, schedule: Q04DX004 (ip), vehicle: Klucel (hydroxypropylcellulose) (HPC)
[3] = dose: 200.0 mg/kg/injection, schedule: Q04DX004 (ip), vehicle: Klucel (hydroxypropylcellulose) (HPC)
[4] = dose: 25.0 mg/kg/injection, schedule: Q04DX004 (ip), vehicle: suspension in saline
[5] = dose: 50.0 mg/kg/injection, schedule: Q04DX004 (ip), vehicle: suspension in saline

Measured: T/C

O=C(Nc1ccc(Cl)c(Cl)c1)C1C(=O)C(=O)N(c2ccc(Cl)c(Cl)c2)C1=O (stereo not drawn)
inactive: [1] 91 % of control | [2] 92 % of control | [3] 89 % of control

Cc1c(O)c2ccccc2c2c1sc(NCCCN(CCO)CCO)[n+]2C
inactive: dose: 7.5 mg/kg/injection, schedule: Q04DX004 (ip), vehicle: saline 93 % of control | dose: 15.0 mg/kg/injection, schedule: Q04DX004 (ip), vehicle: saline 98 % of control | dose: 30.0 mg/kg/injection, schedule: Q04DX004 (ip), vehicle: saline 94 % of control

O=C(Nc1ccc2ccccc2c1)C1C(=O)C(=O)N(c2ccc3ccccc3c2)C1=O (stereo not drawn)
inactive: [1] 100 % of control | [2] 100 % of control | [3] 93 % of control

CN(C)C(=O)Nc1ccc(Cl)cc1
inactive: [4] 107 % of control | [5] 94 % of control and 105 % of control and 113 % of control | dose: 100.0 mg/kg/injection, schedule: Q04DX004 (ip), vehicle: suspension in saline 91 % of control and 102 % of control and 104 % of control | dose: 200.0 mg/kg/injection, schedule: Q04DX004 (ip), vehicle: suspension in saline 92 % of control and 97 % of control and 113 % of control | dose: 400.0 mg/kg/injection, schedule: Q04DX004 (ip), vehicle: suspension in saline 95 % of control and 98 % of control and 99 % of control

COc1ccc(-c2cc(C(=O)Nc3cc(C(F)(F)F)cc(C(F)(F)F)c3)c3ccccc3n2)cc1
inactive: dose: 50.0 mg/kg/injection, schedule: Q04DX004 (ip), vehicle: DMSO 101 % of control | dose: 100.0 mg/kg/injection, schedule: Q04DX004 (ip), vehicle: DMSO 94 % of control | dose: 200.0 mg/kg/injection, schedule: Q04DX004 (ip), vehicle: DMSO 110 % of control | dose: 400.0 mg/kg/injection, schedule: Q04DX004 (ip), vehicle: DMSO 111 % of control

C[C@]12C=CC(=O)C=C1CC[C@@H]1[C@@H]2C(=O)C[C@@]2(C)[C@H]1CC[C@]2(O)C(=O)CO
inactive: [1] 105 % of control and 123 % of control | [2] 118 % of control | [3] 116 % of control | dose: 400.0 mg/kg/injection, schedule: Q04DX004 (ip), vehicle: Klucel (hydroxypropylcellulose) (HPC) 94 % of control

COc1cc([C@@H]2c3cc4c(cc3[C@@H](OC3OC5COC(C)OC5C(O)C3O)[C@H]3COC(=O)[C@H]23)OCO4)cc(OC)c1O (stereo partly drawn)
active: dose: 4.0 mg/kg/injection, schedule: Q04DX005 (ip), vehicle: saline 150 % of control | dose: 8.0 mg/kg/injection, schedule: Q04DX004 (ip), vehicle: saline 157 % of control | dose: 8.0 mg/kg/injection, schedule: Q04DX005 (ip), vehicle: saline 154 % of control | dose: 16.0 mg/kg/injection, schedule: Q04DX004 (ip), vehicle: saline 153 % of control | dose: 16.0 mg/kg/injection, schedule: Q04DX005 (ip), vehicle: saline 198 % of control | dose: 32.0 mg/kg/injection, schedule: Q04DX004 (ip), vehicle: saline 172 % of control and 187 % of control | dose: 32.0 mg/kg/injection, schedule: Q04DX005 (ip), vehicle: saline 319 % of control

O=[N+]([O-])c1c(O)c(CNCCCO)cc(CNCCCO)c1O
inactive: dose: 6.25 mg/kg/injection, schedule: Q04DX004 (ip), vehicle: suspension in saline 98 % of control | dose: 12.5 mg/kg/injection, schedule: Q04DX004 (ip), vehicle: suspension in saline 99 % of control | [4] 101 % of control | [5] 118 % of control

COc1ccc2[nH]c3ccc4cc[n+](CCN5CCC(C6CCN(CC[n+]7ccc8ccc9[nH]c%10ccc(OC)cc%10c9c8c7)CC6)CC5)cc4c3c2c1
active: dose: 16.0 mg/kg/injection, schedule: Q04DX004 (ip), vehicle: water 157 % of control | dose: 32.0 mg/kg/injection, schedule: Q04DX004 (ip), vehicle: water 194 % of control

O=[N+]([O-])O.[Ga]
inactive: dose: 25.0 mg/kg/injection, schedule: Q04DX005 (ip), vehicle: saline 111 % of control | dose: 50.0 mg/kg/injection, schedule: Q04DX005 (ip), vehicle: saline 115 % of control | dose: 100.0 mg/kg/injection, schedule: Q04DX005 (ip), vehicle: saline 115 % of control

COC1CCCCC1C(N)C(=O)O (stereo not drawn) (tested in a mixture with another compound)
inactive: dose: 25.0 mg/kg/injection, schedule: Q04DX004 (ip), vehicle: saline with Tween-80 100 % of control | dose: 50.0 mg/kg/injection, schedule: Q04DX004 (ip), vehicle: saline with Tween-80 91 % of control | dose: 100.0 mg/kg/injection, schedule: Q04DX004 (ip), vehicle: saline with Tween-80 95 % of control | dose: 200.0 mg/kg/injection, schedule: Q04DX004 (ip), vehicle: saline with Tween-80 95 % of control | dose: 400.0 mg/kg/injection, schedule: Q04DX004 (ip), vehicle: saline with Tween-80 93 % of control
